The results in this text go back to US12565504B2, “Spirocyclic O-glycoprotein-2-acetamido-2-deoxy-3-d-glucopyranosidase inhibitors” (BIOGEN MA INC., priority 2019, dated 2026).

Usually pIC50 stands for the negative decadic logarithm of the IC50, by convention in mol/L.

Series [1] is described as follows: Rat Liver Microsome Stability Assay. The following applies: rat liver microsomes 0.5 mg/mL, compound 1 μM; Qh 55 mL/minute/kg.
Experimental: Aliquots (40 uL) at 0, 5, 10, 15, 25 and 40 minutes post NADPH addition (or compound addition for reactions in absence of NADPH) were transferred into individual 96-well plate wells containing 40 ng/ml of 8-cyclopently-1,3-dipropylxanthine (CPDPX, internal standard) in 160 uL acetonitrile:methanol (1:1 v/v).
The LC/MS/MS system consisted of an ultra high throughput RapidFire® 300 system (Agilent Technologies, Santa Clara, CA) coupled to a Triple Quad 5500 mass spectrometer (ABSciex, Foster City, CA). Sample load and wash were performed on a RapidFire® C4 cartridge using 0.1% formic acid in water as mobile phase A and sample elution using 0.1% formic acid in acetonitrile:methanol (1:1 v/v) as mobile phase B.
CLint, app (apparent intrinsic clearance) was calculated using the following equation for microsome stability.
[formula] • where “a” represents 45 grams of liver/kg of body weight for rat. • CLint,app (apparent intrinsic clearance) was calculated using the following equation for hepatocyte stability: • CLhep (hepatic clearance) was calculated using the following equation for microsomes
[formula] • using 55 mL/minute/kg as Qh (hepatic blood flow) for rat.
In another series the test system is P-gp (MDR1). Briefly: MDR1-MDCK Efflux Ratio Assay. In kind it is in vitro ADME. The following applies: dog, MDR1-MDCK cells, pH 7.4, read-out: MDR1-MDCK Efflux Ratio (B-A/A-B). The protocol:
MDR1-MDCK cell monolayers were grown to confluence on microporous polyester membranes in 96-well Corning insert plates. The permeability assay buffer was Hanks' Balanced Salt Solution containing 10 mM HEPES at pH of 7.4. Loperamide (1 μM) was used as a positive control P-gp substrate. Propranolol and Bestatin (1 μM) were used as high and low permeability comparators, respectively.
Test compounds or positive control P-gp substrate/permeability comprators were added to respective apical and basolateral chambers for bidirectional assessment of permeability. Receiver buffer (transport buffer supplemented with 1% bovine serum albumin) was added to respective receiver chambers. MDR1-MDCK cells were incubated with test compounds at 37° C. with 5% CO2 for 2 hr. Samples were collected from the donor chamber at both 0 and 120 minutes, and from the receiver chamber at 120 minutes. Test and control compound concentrations were determined using LC-MS/MS analysis. Each determination was performed in triplicate.

Series [2] addresses Recombinant full length human OGA enzyme (Homo sapiens (Human), UniProt O60502). Nature of the series: OGA Enzyme Inhibition Biochemical Assay. The following applies: 1 nM OGA, 100 μM 4-MUGlcNAc, 90 minutes, pH 6.4. The protocol:
Recombinant full length human OGA enzyme was purchased from Origene. 4-MUGlcNAc substrate was purchased from Sigma. All other reagents were purchased from Sigma or Fisher. Assay buffer consists of the McIlvaine buffer system, pH 6.4 (0.2M Na2HPO4 mixed with 0.1M citric acid) and 0.01% BSA. […] Reactions were incubated for 90 minutes at room temperature and quenched with 40 μl of 3M glycine, pH 10 and read on a Perkin Elmer Envision plate reader (Ex: 355 nm/Em: 460 nm). Compounds were tested with a 10-point dose-response starting from 20 μM with a 4-fold dilution. Data was fit using GraphPad Prism using a 4-parameter fit with variable slope.

The target of another series is OGA (S400 O-GLCNAC) (Homo sapiens (Human), UniProt O60502). Briefly: Cellular OGA-Tau MSD Assay. In kind it is cell-based. The following applies: HEK-293T cells transfected with OGT and Tau-V5; Tau-S400-GlcNAc MSD readout. The protocol:
HEK-293T cells were transfected with OGT and Tau-V5 plasmids using Lipofectamine and grown overnight. Next day, the cells were collected and re-plated at 1×10^5 cells per well in 96 well plates. Cells were incubated for 4 hr at 37° C., before compounds were added at 1 uM, with 3-fold dilutions in a 10-point titration. Cell plates were incubated with compounds overnight at 37° C. The next day media was removed from wells by gentle aspiration and 120 ul of 1× Cell Lysis buffer mixed with protease and phosphatase cocktail added to each well. A freeze thaw was performed at −80° C., then mixed before transferring 50 μl to MSD plates coated with V5-tag antibody to capture Tau. MSD Plates were incubated overnight at 4° C., on a plate shaker. The following day, plates were washed and incubated with Tau-S400-GlcNAc antibody for 2 hr and then developed with rabbit Sulfo-tag antibody. Final read out was carried out on an MSD 600 reader. The data was analyzed using Graph Pad or Genedata, the data was normalized and % activity versus log of compound concentration was plotted. The ICso values were obtained from a 4 parameter fit.

pIC50: −log10 of the molar value.

Sequence of OGA (S400 O-GLCNAC) (O60502 whole entry): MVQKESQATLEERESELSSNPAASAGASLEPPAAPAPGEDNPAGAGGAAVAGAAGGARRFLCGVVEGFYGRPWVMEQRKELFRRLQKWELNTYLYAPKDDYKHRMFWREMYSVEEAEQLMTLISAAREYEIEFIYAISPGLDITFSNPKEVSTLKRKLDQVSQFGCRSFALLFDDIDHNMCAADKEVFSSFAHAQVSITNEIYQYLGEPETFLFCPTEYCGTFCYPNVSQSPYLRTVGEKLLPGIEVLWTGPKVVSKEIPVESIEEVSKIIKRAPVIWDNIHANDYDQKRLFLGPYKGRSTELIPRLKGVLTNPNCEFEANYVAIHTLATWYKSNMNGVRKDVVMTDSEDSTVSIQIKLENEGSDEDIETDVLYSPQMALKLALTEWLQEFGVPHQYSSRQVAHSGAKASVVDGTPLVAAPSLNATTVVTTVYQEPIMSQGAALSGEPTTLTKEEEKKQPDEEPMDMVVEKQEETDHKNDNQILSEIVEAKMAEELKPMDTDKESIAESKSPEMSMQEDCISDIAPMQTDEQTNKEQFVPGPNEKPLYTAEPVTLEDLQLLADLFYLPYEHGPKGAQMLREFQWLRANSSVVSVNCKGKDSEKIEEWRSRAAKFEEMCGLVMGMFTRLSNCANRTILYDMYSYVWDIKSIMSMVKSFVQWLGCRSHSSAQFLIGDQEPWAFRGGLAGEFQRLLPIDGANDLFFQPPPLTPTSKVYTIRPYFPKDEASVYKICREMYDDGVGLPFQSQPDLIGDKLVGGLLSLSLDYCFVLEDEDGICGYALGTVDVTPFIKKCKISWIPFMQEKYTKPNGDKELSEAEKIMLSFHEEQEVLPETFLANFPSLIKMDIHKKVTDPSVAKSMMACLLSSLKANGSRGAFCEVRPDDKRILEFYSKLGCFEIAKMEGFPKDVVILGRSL
Sequence of Recombinant full length human OGA enzyme (O60502 whole entry): as above

With `CC(=O)Nc1nc(F)c(CN2C[C@@]3(Cc4ncccc4O3)C[C@@H]2C)s1` (single isomer, unassigned) [Example 19-a], in series [1], the “RLM % Qh (%)” value is 62%. Further, the efflux ratio at 2 hr in the series on P-gp (MDR1) was found to be 14. Also, the pIC50 in series [2] was 9.00; against OGA (S400 O-GLCNAC) it was 8.30.
On to `COc1cc2c(cn1)[C@]1(C[C@H](C)N(Cc3sc(NC(C)=O)nc3F)C1)OC2` (single isomer, unassigned) [Example 75-a], for which, in series [1], the “RLM % Qh (%)” value was found to be 59%. The efflux ratio at 2 h with P-gp (MDR1) is 7.8. The same compound had a pIC50 against OGA (S400 O-GLCNAC) of 7.40.
`COc1cc2c(cn1)[C@@]1(C[C@H](C)N(Cc3sc(NC(C)=O)nc3F)C1)OC2` (single isomer, unassigned) [Example 75-b]: the “RLM % Qh (%)” value in series [1] came to 89%. Moreover, in the series with P-gp (MDR1), the efflux ratio at 2 h came out at 5.4. At OGA (S400 O-GLCNAC), this compound gave a pIC50 of 7.62.
As for `COc1cc2c(cn1)[C@]1(C[C@H](C)N(Cc3cnc(NC(C)=O)s3)C1)OC2` (single isomer, unassigned) [Example 76-a], in series [1], the “RLM % Qh (%)” value is listed as 58%. In the series with P-gp (MDR1), the efflux ratio at 2 hr is 17.7. Also, the pIC50 in series [2] was 7.26; on OGA (S400 O-GLCNAC) it was 7.21.
For `COc1cc2c(cn1)[C@@]1(C[C@H](C)N(Cc3cnc(NC(C)=O)s3)C1)OC2` (single isomer, unassigned) [Example 76-b], in that order: 89%, 8.9, 6.80 and 7.42.
For the compound `CC(=O)Nc1ncc(CN2CCC3(Cc4ccccc4O3)C2)s1` (stereo not shown) [Example 3, N-(5-((3H-Spiro[benzofuran-2,3′-pyrrolidin]-1′-yl)methyl)thiazol-2-yl)acetamide], in series [1], the “RLM % Qh (%)” value is listed as 81%. Besides, the efflux ratio at 2 hr in the series on P-gp (MDR1) stood at 1.7. Moreover, the pIC50 is 6.48 in series [2] and 6.00 at OGA (S400 O-GLCNAC).
Consider `COc1cccc2c1OC1(CCN(Cc3sc(NC(C)=O)nc3F)C1)C2` (stereo not shown) [Example 4, N-(4-Fluoro-5-((7-methoxy-3H-spiro[benzofuran-2,3′-pyrrolidin]-1′-yl)methyl)thiazol-2-yl)acetamide], for which the “RLM % Qh (%)” value in series [1] was 78%. Also, the efflux ratio at 2 hr in the series on P-gp (MDR1) came out at 3.1. Besides, the results for the pIC50 (in series [2]; against OGA (S400 O-GLCNAC)) were 6.44 and under 6.00, respectively.
For the compound `CC(=O)Nc1nc(F)c(CN2CCC3(Cc4cnc(Cl)cc4O3)C2)s1` (stereo not shown) [Example 7, N-(5-((6-Chloro-3H-spiro[furo[3,2-c]pyridine-2,3′-pyrrolidin]-1′-yl)methyl)-4-fluorothiazol-2-yl)acetamide], the “RLM % Qh (%)” value in series [1] turned out to be 46%. Further, the efflux ratio at 2 hr in the series on P-gp (MDR1) stood at 6.7. The negative-log IC50 (pIC50) was 7.27 in series [2] and 6.52 on OGA (S400 O-GLCNAC).
As for `CC(=O)Nc1ncc(CN2CCC3(Cc4cnc(Cl)cc4O3)C2)s1` (stereo not shown) [Example 8, N-(5-((6-Chloro-3H-spiro[furo[3,2-c]pyridine-2,3′-pyrrolidin]-1′-yl)methyl)thiazol-2-yl)acetamide], the “RLM % Qh (%)” value in series [1] is 47%. Moreover, in the series on P-gp (MDR1), the efflux ratio at 2 hr is 9.4. Further, the pIC50 is 7.13 in series [2] and 6.18 on OGA (S400 O-GLCNAC).
Take `CC(=O)Nc1nc(F)c(CN2C[C@@]3(Cc4cc(Cl)ncc4O3)C[C@@H]2C)s1` [Example 10, N-(5-(((2R,5′S)-5-Chloro-5′-methyl-3H-spiro[furo[2,3-c]pyridine-2,3′-pyrrolidin]-1′-yl)methyl)-4-fluorothiazol-2-yl)acetamide]: the “RLM % Qh (%)” value in series [1] was 75%. In the series on P-gp (MDR1), the efflux ratio at 2 hr stood at 5.2. Further, the pIC50 in series [2] is 9.00; against OGA (S400 O-GLCNAC) it was 8.10.
In the case of `CC(=O)Nc1ncc(CN2C[C@@]3(Cc4cc(Cl)ncc4O3)C[C@@H]2C)s1` [Example 11, N-(5-(((2R,5′S)-5-Chloro-5′-methyl-3H-spiro[furo[2,3-c]pyridine-2,3′-pyrrolidin]-1′-yl)methyl)thiazol-2-yl)acetamide], the “RLM % Qh (%)” value in series [1] is on record as 70%. Moreover, the efflux ratio at 2 hr in the series with P-gp (MDR1) is 8.4. Moreover, the results for the negative logarithm of the IC50 (pIC50) (in series [2]; at OGA (S400 O-GLCNAC)) were 8.22 and 8.05, respectively.
On to `CC(=O)Nc1ncc(CN2C[C@@]3(Cc4cc(C(F)(F)F)ncc4O3)C[C@@H]2C)s1` [Example 22, N-(5-(((2R,5′S)-5′-Methyl-5-(trifluoromethyl)-3H-spiro[furo[2,3-c]pyridine-2,3′-pyrrolidin]-1′-yl)methyl)thiazol-2-yl)acetamide], for which the “RLM % Qh (%)” value in series [1] stood at 39%. Also, in the series with P-gp (MDR1), the efflux ratio at 2 hr is 11. Also, the values for the negative logarithm of the IC50 (pIC50) (in series [2]; on OGA (S400 O-GLCNAC)) were 7.77 and 7.60, respectively.
Turning to `CC(=O)Nc1nc(F)c(CN2C[C@@]3(Cc4cc(C5CC5)ncc4O3)C[C@@H]2C)s1` [Example 24, N-(5-(((2R,5′S)-5-Cyclopropyl-5′-methyl-3H-spiro[furo[2,3-c]pyridine-2,3′-pyrrolidin]-1′-yl)methyl)-4-fluorothiazol-2-yl)acetamide], the “RLM % Qh (%)” value in series [1] was 75%. In addition, in the series with P-gp (MDR1), the efflux ratio at 2 hr came to 6.5. The pIC50 is 9.00 in series [2] and 7.92 on OGA (S400 O-GLCNAC).
As for `CC(=O)Nc1nc(F)c(CN2C[C@@]3(Cc4cc(C(F)F)ncc4O3)C[C@@H]2C)s1` [Example 26, N-(5-(((2R,5′S)-5-(Difluoromethyl)-5′-methyl-3H-spiro[furo[2,3-c]pyridine-2,3′-pyrrolidin]-1′-yl)methyl)-4-fluorothiazol-2-yl)acetamide], in series [1], the “RLM % Qh (%)” value is given as 51%. Besides, the efflux ratio at 2 hr with P-gp (MDR1) was 5.6. For the same compound, the figures for the pIC50 (in series [2]; against OGA (S400 O-GLCNAC)) were 8.52 and 8.30, respectively.
Turning to `CNc1cc2c(cn1)O[C@]1(C2)C[C@H](C)N(Cc2sc(NC(C)=O)nc2F)C1` [Example 29, N-(4-Fluoro-5-(((2R,5′S)-5′-methyl-5-(methylamino)-3H-spiro[furo[2,3-c]pyridine-2,3′-pyrrolidin]-1′-yl)methyl)thiazol-2-yl)acetamide], the “RLM % Qh (%)” value in series [1] amounted to 55%. Moreover, the efflux ratio at 2 hr with P-gp (MDR1) was 17.7. Also, the figures for the pIC50 (in series [2]; on OGA (S400 O-GLCNAC)) were over 9.00 and 8.52, respectively.
Turning to `CC(=O)Nc1nc(F)c(CN2CCC[C@@]3(C2)OCc2c3ccnc2Cl)s1` [Example 84-a, (R)—N-(5-((4-chloro-3H-spiro[furo[3,4-c]pyridine-1,3′-piperidin]-1′-yl)methyl)-4-fluorothiazol-2-yl)acetamide], the negative-log IC50 (pIC50) in series [2] was 8.59; against OGA (S400 O-GLCNAC) it was 8.07.
As to `CC(=O)Nc1nc(F)c(CN2CCC[C@]3(C2)OCc2c3ccnc2Cl)s1` [Example 84-b, (S)—N-(5-((4-chloro-3H-spiro[furo[3,4-c]pyridine-1,3′-piperidin]-1′-yl)methyl)-4-fluorothiazol-2-yl)acetamide], the pIC50 in series [2] is 6.51; against OGA (S400 O-GLCNAC), under 6.00.
In the case of `CC(=O)Nc1ncc(CN2CCCC3(C2)OCc2c3ccnc2Cl)s1` (stereo not shown) [Example 85, N-(5-((4-Chloro-3H-spiro[furo[3,4-c]pyridine-1,3′-piperidin]-1′-yl)methyl)thiazol-2-yl)acetamide], the pIC50 in series [2] is 8.35; at OGA (S400 O-GLCNAC), 7.77.
For `CC(=O)Nc1ncc(CN2CCCC3(C2)OCc2c3cc[nH]c2=O)s1` (stereo not shown) [Example 87, N-(5-((4-Oxo-4,5-dihydro-3H-spiro[furo[3,4-c]pyridine-1,3′-piperidin]-1′-yl)methyl)thiazol-2-yl)acetamide], the negative logarithm of the IC50 (pIC50) in series [2] was 7.46; against OGA (S400 O-GLCNAC) it was 7.27.
For `CC(=O)Nc1nc(F)c(CN2CCCC3(C2)OCc2cncnc23)s1` (stereo not shown) [Example 88, N-(5-((5H-Spiro[furo[3,4-d]pyrimidine-7,3′-piperidin]-1′-yl)methyl)-4-fluorothiazol-2-yl)acetamide], in that order: 7.68 and 7.04.
As to `CC(=O)Nc1ncc(CN2CCCC3(C2)OCc2cncnc23)s1` (stereo not shown) [Example 89, N-(5-((5H-Spiro[furo[3,4-d]pyrimidine-7,3′-piperidin]-1′-yl)methyl)thiazol-2-yl)acetamide], the results for the negative logarithm of the IC50 (pIC50) (in series [2]; against OGA (S400 O-GLCNAC)) were 7.17 and 7.07, respectively.
